Like-named read-outs stand apart in the source and are kept apart here.
Assays:
[1] = tested on: 10 human tumor xenograft-derived cell suspensions or tumor cell lines of renal cancer; test: Clonogenic assay: ex vivo colony formation (anchorage independent growth) in semi-solid medium; type: cell-based; settings: for IC50: Homo sapiens, mean across 10 renal cancer tumor models, test concentrations 0.0698 mM to 3 mM
Experimental: In the present study, mesalamine was characterized for their ability to inhibit anchorage independent growth and ex vivo colony formation of tumor cells in semi-solid medium. Mesalamine was tested against 10 human tumor xenograft-derived cell suspensions or tumor cell lines of renal cancer. Test concentrations ranged from 0.0698 mM to 3 mM.
Cell lines were routinely passaged one or twice weekly. All cells were grown at 37° C. in a humidified atmosphere with 5% CO2 in RPMI 1640 medium (Biochrom) supplemented with 10% (v/v) fetal calf serum and 0.1 mg/mL gentamicin. The percentage of viable cells was determined in a Neubauer-hemocytometer using trypan blue exclusion.
Tumor xenografts (patient-derived, as well as cell line-derived xenografts) were passaged as subcutaneous xenografts in NMRI nu/nu mice. At a tumor volume of 400-1000 mm^3 tumor-bearing mice were sacrificed and tumors were collected under sterile conditions without delay according to the relevant Oncotest SOPs and the relevant animal welfare guidelines published by the FELASA and the GV-SOLAS. Tumors were mechanically disaggregated and subsequently incubated with an enzyme cocktail consisting of collagenase type IV (41 U/mL), DNase I (125 U/mL), hyaluronidase type III (100 U/mL), and dispase II (1.0 U/mL) in RPMI 1640 medium (Life Technologies) at 37° C. for 60-120 minutes. Cells were passed through sieves of 100 μm and 40 μm mesh size (Cell Strainer, BD Falcon™), and washed with RPMI 1640 medium. The percentage of viable cells was determined in a Neubauer-hemocytometer using trypan blue exclusion. Aliquots of the cells were frozen down, and stored in liquid nitrogen. On each day of an experiment, a frozen aliquot of tumor cells was thawed and used for preparation of assay plates.
The clonogenic assay was carried out in a 96 well plate format using ultra low attachment plates. […] Cultures were incubated at 37° C. and 7.5% CO2 in a humidified atmosphere for 8 to 13 days and monitored closely for colony growth using an inverted microscope. […]

[2] = tested on: Human renal cell carcinoma cell line (A498); test: In vivo anti-tumor efficacy in xenograft model; design: species or system female athymic nude mice
Experimental: Healthy 10 female athymic nude mice were recruited for the donor cell inoculation. Animals were subcutaneously injected at flank region with 10 million A498 cells suspended in 200 μl of media and matrigel. Animals were monitored for solid tumor growth. […] Tumors were fragmented in to ˜30 mg size. […] Tumor bearing animals were selected from the experimental animals and grouped on basis of tumor size, into six groups containing 7 animals in each group. […] Group 3 received mesalamine at 250 mg/kg. [table] The tumor sizes were measured weekly twice from the date of tumor appearance till the end of the experiment. Tumor size was measured by digital vernier caliper (MITUTOYO) by measuring length (L=longest axis) and width (W=shortest axis). […] From the tumor volume data mean tumor volume and % tumor growth inhibition (% TGI) were determined.

[3] = G3, 250 mg/kg p.o. q.d.x21, Day 1
[4] = G3, 250 mg/kg p.o. q.d.x21, Day 6
[5] = G3, 250 mg/kg p.o. q.d.x21, Day 9
[6] = G3, 250 mg/kg p.o. q.d.x21, Day 13
[7] = G3, 250 mg/kg p.o. q.d.x21, Day 16
[8] = G3, 250 mg/kg p.o. q.d.x21, Day 20
[9] = G2, 20 mg/kg p.o. q.d.x21 (sub-therapeutic dose), Day 1
[10] = G2, 20 mg/kg p.o. q.d.x21 (sub-therapeutic dose), Day 6
[11] = G2, 20 mg/kg p.o. q.d.x21 (sub-therapeutic dose), Day 9
[12] = G2, 20 mg/kg p.o. q.d.x21 (sub-therapeutic dose), Day 13
[13] = G2, 20 mg/kg p.o. q.d.x21 (sub-therapeutic dose), Day 16
[14] = G2, 20 mg/kg p.o. q.d.x21 (sub-therapeutic dose), Day 20

In the case of Nc1ccc(O)c(C(=O)O)c1 [Mesalamine, 5-amino-2-hydroxybenzoic acid], the IC50 ([1]; continuous exposure 8 to 13 days, read-out: mean relative IC50 value, inhibition of colony formation) is reported as 1210 µM, the IC50 ([1]; read-out: second mean IC50 value printed in brackets after the mean relative IC50) is reported as 1260 µM and the “Bottom plateaus of the concentration-effect curves of responding tumor models” value ([1]; responding tumor models) is reported as 0 to 18%. The “Mean Tumor Growth Inhibition (% TGI)” value [2, 3] was 1.56%, the “Mean Tumor Volume” value [2, 3] was 145.26 mm^3 and the “Mean Tumor Growth Inhibition (% TGI)” value [2, 4] was 51.29%. For the same compound, the “Mean Tumor Volume” value [2, 4] was 161.68 mm^3, the “Mean Tumor Growth Inhibition (% TGI)” value [2, 5] was 46.01% and the “Mean Tumor Volume” value [2, 5] was 250.41 mm^3. For the same compound, the “Mean Tumor Growth Inhibition (% TGI)” value [2, 6] was 51.09%, the “Mean Tumor Volume” value [2, 6] was 301.82 mm^3 and the “Mean Tumor Growth Inhibition (% TGI)” value [2, 7] was 47.87%. For the same compound, the “Mean Tumor Volume” value [2, 7] was 501.10 mm^3, the “Mean Tumor Growth Inhibition (% TGI)” value [2, 8] was 58.08% and the “Mean Tumor Volume” value [2, 8] was 536.78 mm^3. For the same compound, the “inhibiting tumor formation (anti-tumor efficacy by itself)” value ([2]; at the dose tested (250 mg/kg p.o. q.d.x21)) was “more than 50%” and the “anti-tumor efficacy compared with standard” value ([2]; mesalamine 250 mg/kg vs sunitinib 20 mg/kg, p.o. q.d.x21) was “comparable to sunitinib”.
For CCN(CC)CCNC(=O)c1c(C)[nH]c(/C=C2\C(=O)Nc3ccc(F)cc32)c1C [Sunitinib], the “Mean Tumor Growth Inhibition (% TGI)” value [2, 9] was 1.47%, the “Mean Tumor Volume” value [2, 9] was 145.40 mm^3 and the “Mean Tumor Growth Inhibition (% TGI)” value [2, 10] was 47.31%. For the same compound, the “Mean Tumor Volume” value [2, 10] was 174.90 mm^3, the “Mean Tumor Growth Inhibition (% TGI)” value [2, 11] was 43.52% and the “Mean Tumor Volume” value [2, 11] was 261.95 mm^3. The “Mean Tumor Growth Inhibition (% TGI)” value [2, 12] was 44.80%, the “Mean Tumor Volume” value [2, 12] was 340.62 mm^3 and the “Mean Tumor Growth Inhibition (% TGI)” value [2, 13] was 53.39%. The “Mean Tumor Volume” value [2, 13] was 448.05 mm^3, the “Mean Tumor Growth Inhibition (% TGI)” value [2, 14] was 50.78% and the “Mean Tumor Volume” value [2, 14] was 630.25 mm^3.

From patent publication US10220072B2, “Mesalamine for the treatment of cancer” (Cipla Limited, priority 2016, dated 2019)
